Patent publication US11702419B2, “Heterocyclic compound and use thereof” (Takeda Pharmaceutical Company Limited, priority 2018, dated 2023)

Target: T1, NMDA receptor composed of four subunits consisting of two sets of heterodimers of NR1 and NR2B (human GRIN1 and GRIN2B-expressing HEK293 cells) (Homo sapiens, UniProt Q13224)
T1 construct: host or cells: HEK293 (tetracycline-inducible expression)
Test: NR2B Ca2+ influx assay
Type: cell-based
Details: 10 μM compound, glutamic acid/glycine-induced Ca2+ influx, FLIPR, read-out: inhibitory rate (10 μM compound concentration)
Method: In order to confirm an “antagonistic action on an NMDA receptor containing the NR2B subunit” which the compound of the present invention has, inhibitory effect on the NMDA receptor activation was evaluated using “NMDA receptor composed of four subunits consisting of two sets of heterodimers of NR1 and NR2B”-expressing human fetal renal cells, specifically human glutamate ionotropic receptor NMDA type subunit 1 (GRIN1) and human glutamate ionotropic receptor NMDA type subunit 2B (GRIN2B)-expressing HEK293 cells.
As an index of the NMDA receptor activation, intracellular calcium ion (Ca^2+) influx caused by bonding of glycine and glutamate to NR1 and NR2B respectively was used. HEK293 cells were purchased from ChanTest. The cells were cultured in a DMEM/F-12 (COSMO BIO, 10-092-CM) medium containing 10% FBS (fetal bovine serum, AusGene), 100 units/mL penicillin, 100 μg/mL streptomycin, 500 μg/mL neomycin, 100 μg/mL Zeocin and 5 μg/mL Blasticidin at 37° C., 5% CO2. The cells were detached from flask with trypsin the day before the assay, suspended in a seeding medium (DMEM (Invitrogen, 31053) containing 10% FBS, 100 units/mL penicillin and 100 μg/mL streptomycin) at 8×10^5 cells/mL, seeded by 25 μL per well in a 384-well plate (Falcon, 356663) at 20000 cells/well, and cultured overnight in an incubator. On the day of the assay, tetracycline (Wako Pure Chemical Industries, 209-16561) was diluted with the seeding medium at 2 μg/mL, and the dilution was added at 25 μL/well to the plate seeded with the cells, and the cells were cultured for 2 hr in an incubator. Thereafter, the medium was removed, and the cells were washed with 50 μL/well of assay buffer (137 mM NaCl, 4 mM KCl, 1.8 mM CaCl2, 10 mM HEPES (pH 7.2), 10 mM Glucose, and 0.1% BSA). Then, a loading buffer (assay buffer containing 2.5 μM Fluo-4AM, 2 mM Amaranth and 1 mM Tartrazine) was added thereto at 25 μL/well, and loading was performed in the incubator for 30 min, and then at room temperature for 15 min. The test compound was diluted with the above-mentioned assay buffer so as to adjust the concentration to 30 μM, the obtained solution (25 μL) was added thereto (the final concentration 10 μM), and the cells were stood for 15 min at room temperature. Using FLIPR (Molecular Devices), 25 μL of an assay buffer containing 30 μM glutamic acid and 30 μM glycine was added thereto, and the fluorescence signal was measured every 3 seconds for 5 min. The relative activity value (inhibitory rate) was calculated when the cumulative total value of the fluorescence value of a well added with a buffer free of glutamic acid and glycine, relative to the cumulative total value of the fluorescence value of each well are regarded as 100% inhibition. The obtained value was evaluated as an inhibitory activity.

T1 sequence (Q13224 27-1484, other chains not shown): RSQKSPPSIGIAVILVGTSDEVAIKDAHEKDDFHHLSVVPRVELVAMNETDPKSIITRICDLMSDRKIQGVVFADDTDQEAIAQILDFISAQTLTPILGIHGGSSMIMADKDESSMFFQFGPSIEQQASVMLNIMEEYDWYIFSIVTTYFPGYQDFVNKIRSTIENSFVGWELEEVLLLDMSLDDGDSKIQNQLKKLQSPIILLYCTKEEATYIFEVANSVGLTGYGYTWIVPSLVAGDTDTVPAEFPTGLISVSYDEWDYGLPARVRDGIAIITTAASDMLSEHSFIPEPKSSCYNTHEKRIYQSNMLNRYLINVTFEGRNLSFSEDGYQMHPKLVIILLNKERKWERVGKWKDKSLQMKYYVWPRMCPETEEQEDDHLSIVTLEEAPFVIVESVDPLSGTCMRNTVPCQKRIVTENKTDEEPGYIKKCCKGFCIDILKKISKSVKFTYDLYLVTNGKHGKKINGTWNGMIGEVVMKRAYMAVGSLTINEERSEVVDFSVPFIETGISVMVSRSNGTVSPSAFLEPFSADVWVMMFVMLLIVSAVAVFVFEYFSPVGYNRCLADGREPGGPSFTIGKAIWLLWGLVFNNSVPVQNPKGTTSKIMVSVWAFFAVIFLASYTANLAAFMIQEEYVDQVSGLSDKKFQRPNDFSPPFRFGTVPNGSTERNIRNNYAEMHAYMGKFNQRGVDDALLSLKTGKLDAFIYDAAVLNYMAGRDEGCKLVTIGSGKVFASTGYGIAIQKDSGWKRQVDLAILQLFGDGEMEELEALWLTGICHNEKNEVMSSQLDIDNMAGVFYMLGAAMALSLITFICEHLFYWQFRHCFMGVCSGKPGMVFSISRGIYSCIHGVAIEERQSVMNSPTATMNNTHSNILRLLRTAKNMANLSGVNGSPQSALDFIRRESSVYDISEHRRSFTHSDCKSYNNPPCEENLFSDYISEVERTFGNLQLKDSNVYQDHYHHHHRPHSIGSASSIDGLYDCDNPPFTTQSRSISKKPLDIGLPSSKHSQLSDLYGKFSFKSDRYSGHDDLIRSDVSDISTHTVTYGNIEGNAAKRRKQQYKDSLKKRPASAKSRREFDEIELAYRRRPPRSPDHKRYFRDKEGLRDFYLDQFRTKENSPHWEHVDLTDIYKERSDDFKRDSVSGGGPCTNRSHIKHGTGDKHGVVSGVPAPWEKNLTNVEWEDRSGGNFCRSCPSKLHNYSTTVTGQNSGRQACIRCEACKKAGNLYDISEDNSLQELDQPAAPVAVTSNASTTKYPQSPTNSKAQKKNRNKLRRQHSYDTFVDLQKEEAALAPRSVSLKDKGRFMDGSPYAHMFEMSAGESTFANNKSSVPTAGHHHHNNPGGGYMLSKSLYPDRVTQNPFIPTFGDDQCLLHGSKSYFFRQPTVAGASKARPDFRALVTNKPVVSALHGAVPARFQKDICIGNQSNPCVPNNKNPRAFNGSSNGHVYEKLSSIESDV

SMILES | inhibition at 10 µM [%]
COc1ncc(C(=O)NCc2cnn3ncccc23)cc1F [Example 4, 5-fluoro-6-methoxy-N-(pyrazolo[1,5-b]pyridazin-3-ylmethyl)nicotinamide] | 85
O=C(NCc1nnn2ccncc12)c1ccc(OC(F)(F)F)c(F)c1 [Example 42, 3-fluoro-N-([1,2,3]triazolo[1,5-a]pyrazin-3-ylmethyl)-4-(trifluoromethoxy)benzamide] | 94
CCc1nn2ncccc2c1CNC(=O)c1ccc(OC(F)F)c(F)c1 [Example 27, 4-(difluoromethoxy)-N-((2-ethylpyrazolo[1,5-b]pyridazin-3-yl)methyl)-3-fluorobenzamide] | 92
Cc1cnn2ncc(CNC(=O)c3cnc(OC(F)F)c(F)c3)c2c1 [Example 39, 6-(difluoromethoxy)-5-fluoro-N-((5-methylpyrazolo[1,5-b]pyridazin-3-yl)methyl)nicotinamide] | 97
CCOc1nn2ncccc2c1CNC(=O)c1cnc(OC(F)F)c(F)c1 [Example 24, 6-(difluoromethoxy)-N-((2-ethoxypyrazolo[1,5-b]pyridazin-3-yl)methyl)-5-fluoronicotinamide] | 70
O=C(NCc1nnn2ncccc12)c1ccc(OC(F)(F)F)c(F)c1 [Example 18, 3-fluoro-N-([1,2,3]triazolo[1,5-b]pyridazin-3-ylmethyl)-4-(trifluoromethoxy)benzamide] | 98
Cc1ccnn2ncc(CNC(=O)c3ccc(OC(F)(F)F)c(F)c3)c12 [Example 20, 3-fluoro-N-((4-methylpyrazolo[1,5-b]pyridazin-3-yl)methyl)-4-(trifluoromethoxy)benzamide] | 97

Other lines, results leading:

inhibition at 10 µM [%] | SMILES
98 | Cc1cnn2nnc(CNC(=O)c3ccc(OC(F)(F)F)c(F)c3)c2c1 [Example 49, 3-fluoro-N-((5-methyl[1,2,3]triazolo[1,5-b]pyridazin-3-yl)methyl)-4-(trifluoromethoxy)benzamide]
88 | Cn1ccn2ncc(CNC(=O)c3ccc(OC4CC4)cc3)c12 [Example 60, 4-(cyclopropyloxy)-N-((1-methyl-1H-imidazo[1,2-b]pyrazol-7-yl)methyl)benzamide]
98 | Cn1ccn2ncc(CNC(=O)c3ccc(C(F)(F)F)c(F)c3)c12 [Example 67, 3-fluoro-N-((1-methyl-1H-imidazo[1,2-b]pyrazol-7-yl)methyl)-4-(trifluoromethyl)benzamide]
97 | Cn1ccn2ncc(CNC(=O)c3ccc(OC(F)(F)F)c(F)c3)c12 [Example 57, 3-fluoro-N-((1-methyl-1H-imidazo[1,2-b]pyrazol-7-yl)methyl)-4-(trifluoromethoxy)benzamide]
94 | CCn1ccn2ncc(CNC(=O)c3cnc(OC(F)F)c(F)c3)c12 [Example 83, 6-(difluoromethoxy)-N-[(1-ethyl-1H-imidazo[1,2-b]pyrazol-7-yl)methyl]-5-fluoropyridine-3-carboxamide]
79 | Cc1ccnn2nnc(CNC(=O)c3cnc(OC(F)F)c(Cl)c3)c12 [Example 54, 5-chloro-6-(difluoromethoxy)-N-((4-methyl[1,2,3]triazolo[1,5-b]pyridazin-3-yl)methyl)nicotinamide]
100 | Cc1nn2ncc(CNC(=O)c3cnc(OC(F)F)c(F)c3)c2n1C [Example 70, 6-(difluoromethoxy)-N-[(1,2-dimethyl-1H-pyrazolo[1,5-b][1,2,4]triazol-7-yl)methyl]-5-fluoropyridine-3-carboxamide]
95 | O=C(NCc1c(C(F)F)nn2ncccc12)c1cnc(OC(F)F)c(F)c1 [Example 43, 6-(difluoromethoxy)-N-((2-(difluoromethyl)pyrazolo[1,5-b]pyridazin-3-yl)methyl)-5-fluoronicotinamide]
95 | Cc1ccnn2nnc(CNC(=O)c3ccc(OC(F)(F)F)c(F)c3)c12 [Example 52, 3-fluoro-N-((4-methyl[1,2,3]triazolo[1,5-b]pyridazin-3-yl)methyl)-4-(trifluoromethoxy)benzamide]
96 | O=C(NCc1cnn2ccn(CC(F)F)c12)c1ccc(OC(F)(F)F)c(F)c1 [Example 81, N-{[1-(2,2-difluoroethyl)-1H-imidazo[1,2-b]pyrazol-7-yl]methyl}-3-fluoro-4-(trifluoromethoxy)benzamide]
